Results: patent US20160243223A1, “METHODS FOR TREATING CANCERS COMPRISING K-RAS MUTATIONS” (OncoMed Pharmaceuticals, Inc., priority 2009, published 2016)

B1: 21M18 H7L2: humanized form of the murine 21M18 antibody; anti-human DLL4 antibody (antibody, V domains shown)
VH: QVQLVQSGAEVKKPGASVKISCKASGYSFTAYYIHWVKQAPGQGLEWIGYISSYNGATNYNQKFKGRVTFTTDTSTSTAYMELRSLRSDDTAVYYCARDYDYDVGMDYWGQGTLVTVSS
VL: DIVMTQSPDSLAVSLGERATISCRASESVDNYGISFMKWFQQKPGQPPKLLIYAASNQGSGVPDRFSGSGSGTDFTLTISSLQAEDVAVYYCQQSKEVPWTFGGGTKVEIK

Assays:
C9 colon tumor = C9 colon tumor recurrence xenograft model; format: in vivo, NOD/SCID mice; settings: treatment from 2 days after injection; antibody 10 mg/kg twice a week, irinotecan […] once a week, intraperitoneally; FIG. 4
Description: Starting 2 days after injection, mice were treated with irinotecan alone (Δ) or anti-human DLL4 antibody (21M18 […]) plus irinotecan (▾). Treatment in both groups was discontinued on the indicated day and tumor growth was monitored for an additional period of time. […] Both antibodies and chemotherapeutic agents were administered intraperitoneally. Tumor growth was measured with electronic calipers at the indicated time points.

PN8 pancreatic tumor = PN8 pancreatic tumor recurrence xenograft model after gemcitabine; format: in vivo, NOD/SCID mice; settings: after gemcitabine 100 mg/kg once a week for 4 weeks; antibodies 10 mg/kg once a week from day 53; vs control antibody; FIG. 5
Description: The PN8 pancreatic tumor was determined to have a K-ras mutation, a glycine to aspartic acid mutation at codon 12, that is a known activating mutation. Anti-DLL4 antibodies were tested for efficacy in this xenograft tumor model. Dissociated PN8 pancreatic tumor cells (10,000 cells) were injected subcutaneously into the flanks of 6-8 week old NOD/SCID mice. Tumors were allowed to grow for 28 days until they reached an average volume of 173 mm^3. […] On day 53, the gemcitabine treatments were stopped and antibody treatments initiated. Mice were treated with control antibody ([…]), anti-mouse DLL4 antibody (21R30) (▾), anti-human DLL4 antibody (21M18 H7L2) (▴), or a combination of anti-mouse DLL4 antibody and anti-human DLL4 antibody (21R30+21M18 H7L2) (□). […] Both antibodies and chemotherapeutic agents were administered intraperitoneally. Tumor growth was measured with electronic calipers at the indicated time points.

Molecule	tumor growth after cessation of treatment (C9 colon tumor)	tumor recurrence after chemotherapy (PN8 pancreatic tumor)
CCc1c2c(nc3ccc(OC(=O)N4CCC(N5CCCCC5)CC4)cc13)-c1cc3c(c(=O)n1C2)COC(=O)[C@]3(O)CC [Irinotecan, irinotecan]	tumor growth progressed	
B1		more substantial effect in inhibiting and/or delaying tumor re-growth
